Measured values taken from PubChem BioAssay (NCI).
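Compound exposure: 48 hours, 5 concentrations, 96-well plates. GI50: concentration for 50% inhibition of growth. At the TGI there is no net growth.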

Key:
Test in all cases: NCI anticancer screen, dose series, 48 h
OVCAR-4 ovarian = tested on: OVCAR-4 ovarian
SK-MEL-28 melanoma = tested on: SK-MEL-28 melanoma
SK-OV-3 ovarian = tested on: SK-OV-3 ovarian
NCI-H23 lung = tested on: NCI-H23 lung
SW-620 colon = tested on: SW-620 colon
HT29 colon = tested on: HT29 colon
HCC-2998 colon = tested on: HCC-2998 colon
HOP-62 NSCLC = tested on: HOP-62 NSCLC
SK-MEL-2 melanoma = tested on: SK-MEL-2 melanoma
SN12C renal = tested on: SN12C renal

CN(/N=C1\C(=O)Nc2ccccc21)c1ccccc1
TGI (OVCAR-4 ovarian): > 100 µM | TGI (SK-MEL-28 melanoma): > 100 µM | TGI (SK-OV-3 ovarian): > 100 µM | TGI (NCI-H23 lung): > 100 µM | TGI (SW-620 colon): > 100 µM | TGI (HT29 colon): > 100 µM | TGI (HCC-2998 colon): > 100 µM | TGI (HOP-62 NSCLC): > 100 µM | TGI (SK-MEL-2 melanoma): > 100 µM

Cc1nc2ccc(Cl)cc2c(-n2ccnc2)c1CCn1ccnc1
TGI (OVCAR-4 ovarian): > 100 µM | TGI (SK-MEL-28 melanoma): 92.8 µM | TGI (SN12C renal): > 100 µM | TGI (SK-OV-3 ovarian): > 100 µM | TGI (NCI-H23 lung): > 100 µM | TGI (SW-620 colon): > 100 µM | TGI (HT29 colon): 41.7 µM | TGI (HCC-2998 colon): > 100 µM | TGI (HOP-62 NSCLC): > 100 µM | TGI (SK-MEL-2 melanoma): 44.7 µM

[N-]=[N+]=CC(=O)C1CCCN1C(=O)c1ccccc1 (centres undefined)
TGI (OVCAR-4 ovarian): > 10 µM | TGI (SK-MEL-28 melanoma): > 10 µM | TGI (SN12C renal): > 10 µM | TGI (SK-OV-3 ovarian): > 10 µM | TGI (NCI-H23 lung): > 10 µM | TGI (SW-620 colon): > 10 µM | TGI (HT29 colon): > 10 µM | TGI (HCC-2998 colon): > 10 µM | TGI (HOP-62 NSCLC): > 10 µM | TGI (SK-MEL-2 melanoma): > 10 µM

Cc1c(N2CCOCC2)nc2ccc(Cl)cc2c1-c1ccccc1
TGI (OVCAR-4 ovarian): > 100 µM | TGI (SK-MEL-28 melanoma): > 100 µM | TGI (SN12C renal): > 100 µM | TGI (SK-OV-3 ovarian): > 100 µM | TGI (NCI-H23 lung): > 100 µM | TGI (SW-620 colon): > 100 µM | TGI (HT29 colon): > 100 µM | TGI (HCC-2998 colon): > 100 µM | TGI (HOP-62 NSCLC): > 100 µM | TGI (SK-MEL-2 melanoma): > 100 µM

O=C(c1ccco1)N(C(=O)N1CCCCC1)c1ccccc1
TGI (SK-MEL-28 melanoma): > 100 µM | TGI (SN12C renal): > 100 µM | TGI (SK-OV-3 ovarian): > 100 µM | TGI (NCI-H23 lung): > 100 µM | TGI (SW-620 colon): > 100 µM | TGI (HT29 colon): > 100 µM | TGI (SK-MEL-2 melanoma): > 100 µM

CCOC(=O)CSc1nc(N)c2c(-c3ccccc3)c3c(nc2n1)CCCC3
TGI (OVCAR-4 ovarian): > 100 µM | TGI (SK-MEL-28 melanoma): > 100 µM | TGI (SN12C renal): > 100 µM | TGI (SK-OV-3 ovarian): > 100 µM | TGI (NCI-H23 lung): > 100 µM | TGI (SW-620 colon): > 100 µM | TGI (HT29 colon): > 100 µM | TGI (HCC-2998 colon): > 100 µM | TGI (HOP-62 NSCLC): > 100 µM | TGI (SK-MEL-2 melanoma): > 100 µM

CN(C)CCn1c(=O)c2ccc(NCCCN(C)CCCNc3ccc4c(=O)n(CCN(C)C)c(=O)n5c6ccc(O)cc6c(=O)c3c45)c3c(=O)c4cc(O)ccc4n(c1=O)c23
TGI (OVCAR-4 ovarian): 0.177 µM | TGI (SK-MEL-28 melanoma): 1.19 µM | TGI (SN12C renal): 0.553 µM | TGI (SK-OV-3 ovarian): 2.4 µM | TGI (NCI-H23 lung): 0.226 µM | TGI (HT29 colon): 1.05 µM | TGI (HCC-2998 colon): 0.173 µM | TGI (HOP-62 NSCLC): 1.51 µM | TGI (SK-MEL-2 melanoma): 0.275 µM

COC(=O)[C@]1(C)CCC[C@@]2(C)C1CC[C@]13C=C(C(C)C)[C@H](CC21)CC3(Cl)C#N (some centres undefined)
TGI (OVCAR-4 ovarian): > 100 µM | TGI (SK-MEL-28 melanoma): > 100 µM | TGI (SN12C renal): > 100 µM | TGI (SK-OV-3 ovarian): > 100 µM | TGI (NCI-H23 lung): > 100 µM | TGI (SW-620 colon): > 100 µM | TGI (HT29 colon): > 100 µM | TGI (HCC-2998 colon): > 100 µM | TGI (HOP-62 NSCLC): > 100 µM

CC(=O)O[C@@H](c1nccn1Cc1ccccc1)[C@H]1OC(C)(C)O[C@@H]1[C@H]1COC(C)(C)O1
TGI (OVCAR-4 ovarian): > 100 µM | TGI (SK-MEL-28 melanoma): > 100 µM | TGI (SN12C renal): > 100 µM | TGI (NCI-H23 lung): > 100 µM | TGI (SW-620 colon): > 100 µM | TGI (HT29 colon): > 100 µM | TGI (HCC-2998 colon): > 100 µM | TGI (HOP-62 NSCLC): > 100 µM | TGI (SK-MEL-2 melanoma): > 100 µM

c1ccc(-c2c(-c3ccccc3)[n+](Cc3ccc4ccccc4c3)c(-c3ccc(-c4nc5ccccc5s4)cc3)n2Cc2ccc3ccccc3c2)cc1
GI50 (OVCAR-4 ovarian): 48.6 nM | TGI (OVCAR-4 ovarian): 1.12 µM | GI50 (SK-MEL-28 melanoma): 368 nM | TGI (SK-MEL-28 melanoma): 1.57 µM | GI50 (SN12C renal): 218 nM | TGI (SN12C renal): 1.04 µM | GI50 (NCI-H23 lung): 93.3 nM | TGI (NCI-H23 lung): 0.759 µM | GI50 (SW-620 colon): 140 nM | TGI (SW-620 colon): 0.764 µM | GI50 (HCC-2998 colon): 244 nM | TGI (HCC-2998 colon): 1.01 µM

NS(=O)(=O)c1nnc(NC(=O)N(c2ccccc2)c2ccccc2)s1
TGI (OVCAR-4 ovarian): > 100 µM | TGI (SK-MEL-28 melanoma): > 100 µM | TGI (SN12C renal): 40.8 µM | TGI (SK-OV-3 ovarian): > 100 µM | TGI (NCI-H23 lung): 58.9 µM | TGI (SW-620 colon): > 100 µM | TGI (HT29 colon): > 100 µM | TGI (HOP-62 NSCLC): 77.3 µM | TGI (SK-MEL-2 melanoma): 89.1 µM

Cc1ccc(-c2cc(-c3ccco3)c(C#N)c(=S)[nH]2)cc1
TGI (OVCAR-4 ovarian): > 100 µM | TGI (SK-MEL-28 melanoma): > 100 µM | TGI (SN12C renal): > 100 µM | TGI (SK-OV-3 ovarian): > 100 µM | TGI (NCI-H23 lung): 97.8 µM | TGI (SW-620 colon): > 100 µM | TGI (HT29 colon): > 100 µM | TGI (HCC-2998 colon): > 100 µM | TGI (HOP-62 NSCLC): > 100 µM

O=C1C=CC2(O[C@H](c3ccccc3)[C@@H](c3ccccc3)O2)[C@H](Sc2ccccc2O)C1
TGI (OVCAR-4 ovarian): 2.43 µM | TGI (SN12C renal): 0.353 µM | TGI (SK-OV-3 ovarian): 11.8 µM | TGI (NCI-H23 lung): 2.39 µM | TGI (SW-620 colon): > 100 µM | TGI (HT29 colon): 1.45 µM | TGI (HCC-2998 colon): 1.63 µM | TGI (HOP-62 NSCLC): 3.98 µM | TGI (SK-MEL-2 melanoma): 4.63 µM

OCc1cn(Cc2ccccc2)c2ccccc12
TGI (SK-MEL-28 melanoma): > 100 µM | TGI (SN12C renal): > 46.8 µM | TGI (SK-OV-3 ovarian): > 100 µM | TGI (NCI-H23 lung): 31 µM | TGI (SW-620 colon): > 100 µM | TGI (HT29 colon): > 84.5 µM | TGI (HOP-62 NSCLC): > 100 µM | TGI (SK-MEL-2 melanoma): 24.6 µM

CCOC(=O)c1csc(NC(=O)C(C)N2CCCC2)n1 (centres undefined)
TGI (OVCAR-4 ovarian): > 100 µM | TGI (SK-MEL-28 melanoma): > 100 µM | TGI (SK-OV-3 ovarian): > 100 µM | TGI (NCI-H23 lung): > 100 µM | TGI (SW-620 colon): > 100 µM | TGI (HT29 colon): > 100 µM | TGI (HCC-2998 colon): > 100 µM | TGI (HOP-62 NSCLC): > 100 µM | TGI (SK-MEL-2 melanoma): > 100 µM

Cn1nc(-c2ccc(S(=O)(=O)/N=C(\NN)Nc3ccc(Cl)cc3)s2)cc1C(F)(F)F
TGI (OVCAR-4 ovarian): 29.9 µM | TGI (SK-MEL-28 melanoma): 33.8 µM | TGI (SN12C renal): 31.4 µM | TGI (SK-OV-3 ovarian): 41.9 µM | TGI (NCI-H23 lung): 40.9 µM | TGI (SW-620 colon): 36.9 µM | TGI (HT29 colon): 30.4 µM | TGI (HOP-62 NSCLC): 32.3 µM | TGI (SK-MEL-2 melanoma): 34.1 µM

COC(=O)CC(=O)OSc1ccccc1
TGI (OVCAR-4 ovarian): > 100 µM | TGI (SN12C renal): 27.1 µM | TGI (SK-OV-3 ovarian): 46 µM | TGI (NCI-H23 lung): 82.9 µM | TGI (SW-620 colon): 38.4 µM | TGI (HCC-2998 colon): 95 µM | TGI (HOP-62 NSCLC): 53.4 µM | TGI (SK-MEL-2 melanoma): 97.5 µM

COC(=O)CNC(=O)C(CSC(=O)OCC1c2ccccc2-c2ccccc21)NC(=O)CCC(NC(=O)OCC1c2ccccc2-c2ccccc21)C(=O)OC (centres undefined)
TGI (OVCAR-4 ovarian): 33.4 µM | TGI (SK-MEL-28 melanoma): > 100 µM | TGI (SN12C renal): > 100 µM | TGI (SK-OV-3 ovarian): 74.6 µM | TGI (NCI-H23 lung): 37 µM | TGI (SW-620 colon): > 100 µM | TGI (HCC-2998 colon): 40.7 µM | TGI (HOP-62 NSCLC): 40.2 µM | TGI (SK-MEL-2 melanoma): 31.1 µM

CC1CC(N2CCOCC2)=Nc2ccccc2N1C (centres undefined)
TGI (OVCAR-4 ovarian): > 100 µM | TGI (SK-MEL-28 melanoma): > 100 µM | TGI (SN12C renal): > 100 µM | TGI (SK-OV-3 ovarian): > 100 µM | TGI (NCI-H23 lung): > 100 µM | TGI (SW-620 colon): > 100 µM | TGI (HT29 colon): > 100 µM | TGI (HOP-62 NSCLC): > 100 µM | TGI (SK-MEL-2 melanoma): > 100 µM

COc1ccc2ccc3oc(=O)c(C)cc3c2c1
TGI (OVCAR-4 ovarian): > 100 µM | TGI (SK-MEL-28 melanoma): > 100 µM | TGI (SN12C renal): > 100 µM | TGI (NCI-H23 lung): > 100 µM | TGI (SW-620 colon): > 100 µM | TGI (HT29 colon): > 100 µM | TGI (HCC-2998 colon): > 100 µM | TGI (HOP-62 NSCLC): > 100 µM | TGI (SK-MEL-2 melanoma): > 100 µM

COc1cccc(C2c3cc4c(cc3OC(O)C2C)OCO4)c1OC (centres undefined)
TGI (SK-MEL-28 melanoma): 39.5 µM | TGI (SN12C renal): 64 µM | TGI (NCI-H23 lung): 64 µM | TGI (SW-620 colon): 54 µM | TGI (HT29 colon): 24.5 µM | TGI (HCC-2998 colon): 46 µM | TGI (HOP-62 NSCLC): 80.1 µM | TGI (SK-MEL-2 melanoma): 25.6 µM

N#Cc1c(-c2ccc([N+](=O)[O-])cc2)cc(-c2ccc(Nc3ccnc4cc(Cl)ccc34)cc2)[nH]c1=O
TGI (OVCAR-4 ovarian): > 100 µM | TGI (SK-MEL-28 melanoma): > 100 µM | TGI (SK-OV-3 ovarian): > 100 µM | TGI (NCI-H23 lung): > 100 µM | TGI (SW-620 colon): > 100 µM | TGI (HCC-2998 colon): > 100 µM | TGI (HOP-62 NSCLC): > 100 µM | TGI (SK-MEL-2 melanoma): > 100 µM
